According to article PMC3400110 (Journal of Medicinal Chemistry, 2009):
Several values for one entry are separate records, joined by “and”; a condition that tells them apart may be missing. Equal entries are not always repeated. Where two headings read alike, the source gives them in different places.

Key:
human P-gp-His10 [1] = target: T1, human P-gp-His10 (Homo sapiens, UniProt P08183)
human P-gp-His10 [2] = target: T1, human P-gp-His10; assay: Stimulation of human P-gp-His10 ATPase activity; conditions: read-out: KM (apparent Michaelis-Menten constant, concentration for half maximal stimulation of ATPase activity)
log P = assay type: physicochemical; conditions: n-octanol/water
[3] = system: MDCKII-MDR1 transfected cells, which over-express P-gp; assay: Transport and cell association across monolayers of MDCKII-MDR1 cells; conditions: 5 μM dye, 4.3 mg mL^−1 BSA (23-Se: no added BSA); for PAB (absorptive transport), + inh / PBA (secretory transport), + inh: + […] inhibitor 42
[4] = system: MDCKII-MDR1 transfected cells, which over-express P-gp; conditions: dog, MDCK-MDR1
P-gp = assay: in vitro; conditions: dog, MDCK-MDR1

T1 sequence (P08183 whole entry): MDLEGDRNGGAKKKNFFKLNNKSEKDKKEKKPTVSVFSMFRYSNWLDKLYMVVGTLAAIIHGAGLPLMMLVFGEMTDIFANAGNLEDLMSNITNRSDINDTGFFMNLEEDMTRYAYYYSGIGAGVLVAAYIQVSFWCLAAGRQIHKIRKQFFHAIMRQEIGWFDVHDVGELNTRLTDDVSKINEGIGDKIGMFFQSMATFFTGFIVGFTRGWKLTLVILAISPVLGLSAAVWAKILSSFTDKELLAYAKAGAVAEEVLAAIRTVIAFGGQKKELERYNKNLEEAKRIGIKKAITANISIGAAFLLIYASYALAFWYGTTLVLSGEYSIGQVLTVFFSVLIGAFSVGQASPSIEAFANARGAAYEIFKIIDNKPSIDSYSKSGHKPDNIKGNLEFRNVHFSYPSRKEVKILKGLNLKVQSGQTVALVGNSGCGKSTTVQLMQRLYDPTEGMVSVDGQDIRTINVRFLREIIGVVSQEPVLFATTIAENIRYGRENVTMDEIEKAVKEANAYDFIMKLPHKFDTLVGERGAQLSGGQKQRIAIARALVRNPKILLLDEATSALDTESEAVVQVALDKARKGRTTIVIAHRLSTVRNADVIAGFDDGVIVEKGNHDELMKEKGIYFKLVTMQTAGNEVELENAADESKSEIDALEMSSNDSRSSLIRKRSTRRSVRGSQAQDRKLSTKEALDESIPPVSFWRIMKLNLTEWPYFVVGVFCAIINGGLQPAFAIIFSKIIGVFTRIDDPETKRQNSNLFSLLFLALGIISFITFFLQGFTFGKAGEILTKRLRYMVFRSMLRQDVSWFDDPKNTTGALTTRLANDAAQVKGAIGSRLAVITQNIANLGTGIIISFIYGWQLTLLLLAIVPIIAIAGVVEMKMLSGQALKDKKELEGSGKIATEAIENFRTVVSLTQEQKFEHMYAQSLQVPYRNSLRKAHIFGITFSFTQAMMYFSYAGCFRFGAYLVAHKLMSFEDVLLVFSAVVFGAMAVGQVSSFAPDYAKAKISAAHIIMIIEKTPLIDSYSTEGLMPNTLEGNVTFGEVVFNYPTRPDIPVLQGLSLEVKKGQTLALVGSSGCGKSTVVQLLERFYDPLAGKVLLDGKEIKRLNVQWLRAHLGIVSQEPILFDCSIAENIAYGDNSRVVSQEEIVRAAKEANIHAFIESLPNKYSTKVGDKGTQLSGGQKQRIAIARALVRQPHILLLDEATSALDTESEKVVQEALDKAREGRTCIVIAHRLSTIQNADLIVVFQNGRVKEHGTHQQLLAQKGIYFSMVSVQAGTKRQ

With `CN(C)c1ccc2c(-c3ccccc3)c3ccc(=[N+](C)C)cc-3[se]c2c1` [Compound 1-Se] the Km (human P-gp-His10 [1]) was 9.1 ± 1.1 µM.

Work on `CN(C)c1ccc2c(-c3ccccc3)c3ccc(=[N+](C)C)cc-3[te]c2c1` [Compound 1-Te] yielded a Km (human P-gp-His10 [1]) of 8.3 ± 0.8 µM.

With `CN(C)c1ccc(-c2c3ccc(=[N+](C)C)cc-3sc3cc(N(C)C)ccc23)cc1` [Compound 5-S] the Km (human P-gp-His10 [2]) was 8.3 ± 1.2 µM.

`CN(C)c1ccc(-c2c3ccc(=[N+](C)C)cc-3[se]c3cc(N(C)C)ccc23)cc1` [Compound 5-Se] showed a Km (human P-gp-His10 [1]) of 10.1 ± 0.7 µM.

`CN(C)c1ccc(-c2c3ccc(=[N+](C)C)cc-3[te]c3cc(N(C)C)ccc23)cc1` [Compound 5-Te] showed a Km (human P-gp-His10 [1]) of 9 ± 0.8 µM.

Work on `CN(C)c1cccc(-c2c3ccc(=[N+](C)C)cc-3sc3cc(N(C)C)ccc23)c1` [Compound 7-S] yielded a Km (human P-gp-His10 [2]) of 3.4 ± 0.6 µM.

In the case of `CN(C)c1cccc(-c2c3ccc(=[N+](C)C)cc-3[se]c3cc(N(C)C)ccc23)c1` [Compound 7-Se], the Km (human P-gp-His10 [1]) is reported as 3.5 ± 0.2 µM.

For `CN(C)c1cccc(-c2c3ccc(=[N+](C)C)cc-3[te]c3cc(N(C)C)ccc23)c1` [Compound 7-Te], the Km (human P-gp-His10 [1]) was 2 ± 0.1 µM.

In the case of `COc1cccc(-c2c3ccc(=[N+](C)C)cc-3sc3cc(N(C)C)ccc23)c1` [Compound 10-S], the Km (human P-gp-His10 [2]) is reported as 3.9 ± 0.1 µM.

With `COc1cccc(-c2c3ccc(=[N+](C)C)cc-3[se]c3cc(N(C)C)ccc23)c1` [Compound 10-Se] the Km (human P-gp-His10 [1]) was 3.3 ± 0.6 µM.

With `COc1cccc(-c2c3ccc(=[N+](C)C)cc-3[te]c3cc(N(C)C)ccc23)c1` [Compound 10-Te] the Km (human P-gp-His10 [1]) was 3.2 ± 1 µM.

`CN(C)c1ccc2c(-c3ccc(C(=S)N4CCCCC4)s3)c3ccc(N(C)C)cc3[s+]c2c1` [Compound 30-S, 3,6-Bis(dimethylamino)-9-(N-piperidyl-2-thienyl-5-thiocarboxamido)thioxanthylium Hexafluorophosphate] showed a Km (human P-gp-His10 [2]) of 0.36 ± 0.08 µM.

For `CN(C)c1ccc2c(-c3ccc(C(=S)N4CCCCC4)s3)c3ccc(N(C)C)cc3[te+]c2c1.F[P-](F)(F)(F)(F)F` [Compound 30-Te, 3,6-Bisa(dimethylamino)-9-(N-piperidyl-2-thienyl-5-thiocarboxamido)telluroxanthylium Hexafluorophosphate], the “log P” value (log P) was 0.9, the “PAB (absorptive transport), + inh” value [3] was 1.2 ± 0.1 nm/s and the “PBA (secretory transport), + inh” value [3] was 0.2 ± 0.01 ×10⁻⁶ cm/s. The “PAB (absorptive transport)” value ([3]; no inhibitor) was 0.09 ± 0.01 ×10⁻⁶ cm/s, the “PBA (secretory transport)” value ([3]; no inhibitor) was 2.2 ± 0.8 ×10⁻⁶ cm/s and the Km (human P-gp-His10 [2]) was 0.41 ± 0.03 µM.

In the case of `CN(C)c1ccc2c(-c3ccc(C(=S)N4CCCCC4)s3)c3cc4c5c(c3[s+]c2c1)CCCN5CCC4.F[P-](F)(F)(F)(F)F` [Compound 31-S, 12-(Dimethylamino)-2,3,6,7-tetrahydro-9-(N-Piperidyl-2-thienyl-5-thiocarboxamido)-1H,5H-thioxantheno[2,3,4-ij]quinolizin-14-ium Hexafluorophosphate], the “PAB (absorptive transport), + inh” value [3] is reported as 0.8 ± 0.1 0.8 ± 0.1 nm s^−1, the “PBA (secretory transport), + inh” value [3] is reported as 0.16 ± 0.01 ×10⁻⁶ cm/s and the “PBA (secretory transport)” value ([3]; no inhibitor) is reported as 5 ×10⁻⁶ cm/s and 5 ± 0.1 ×10⁻⁶ cm/s. For the same compound, the Km (human P-gp-His10 [2]) was 0.087 ± 0.012 µM.

With `CN(C)c1ccc2c(-c3ccc(CCl)cc3)c3ccc(=[N+](C)C)cc-3oc2c1.[Br-]` [TMR, tetramethylrosamine] the “P BA/AB (ratio of secretory to absorptive transport), + inh” value [4] was 338 1.6, the “PAB (absorptive transport)” value [4] was 3.0 ± 0.1 14 ± 1 nm s^−1 and the “PAB (absorptive transport), + inh” value [4] was 3.0 ± 0.1 14 ± 1 nm s^−1. For the same compound, the “PBA (secretory transport), + inh” value [4] was 1010 ± 10 21 ± 2 nm s^−1 and the Papp (P-gp) was 1.7 ± 0.5 ×10⁻⁶ cm/s.
